Measurements as given in a melting point compilation (Tetko et al.; mined from patent text by program, amines drawn as free bases though some values may be those of a salt).

Structure (SMILES) | melting point [°C]
COc1ccc(-c2nc(N)n3nc(-c4ccco4)nc3n2)cc1 | > 275
COc1cc(C(=O)N2Cc3ccccc3Cc3ccccc32)ccc1NC(=O)C1(C)C=CC=CC1 (centres undefined) | 209 to 210
Cc1cc(C)cc(COC(=O)C(NC(=O)OC(C)(C)C)C(c2ccccc2)c2ccccc2)c1 (centres undefined) | 123
COC(Cc1ccc(OCCc2nc(-c3ccccc3)oc2C)c2ccccc12)C(=O)O (centres undefined) | 128 to 130
O=C1N=NC(=O)c2c1[nH]c1c(Cl)cccc21 | > 250
Cc1ccc(-c2cc(OCC3CO3)c3ccccc3n2)cc1 (racemic) | 100 to 102
Clc1ccc2c(c1)C(c1ccccc1Cl)NCc1cncnc1-2 (centres undefined) | 169 to 170
CCOC(=O)Cc1ccc2c(c1)NC(NC(C)C)=NS2(=O)=O | 182 to 184
C1=C(c2ccc3c(c2)OCO3)CCN(Cc2n[nH]c3ccccc23)C1 | 139 to 141
CNC(=NS(C)(=O)=O)NCCSCc1csc(NC(N)=NCC(F)F)n1 | 85 to 89
CC(C)(C)C(=O)Nc1cccc(-c2ccnc3c(C(=O)c4ccccc4)cnn23)c1 | 160 to 161
CC(C)(C)OC(=O)Nc1ccc(C(=O)O)c2ccccc12 | 194 to 195
COC(=O)C(Cl)=NNc1ccc(Cl)cc1 | 149 to 150
CCC1(C)Oc2cccc(O)c2O1 (centres undefined) | 48 to 50
CCCCCc1cc2c(cc1C#C/C=C/C(C)=C/C(=O)O)C(C)(C)CCC2(C)C | 155 to 156
CCCCCCCCCCCCOc1cccc2c(OCCCCCCCCCCCC)cccc12 | 92 to 93
C#CCNc1ccc(C(C)=O)cc1 | 97 to 100
COc1cc(Cc2cc3cccc(-c4cccc(C(=O)NCCC#N)c4)c3s2)ccc1F | 158 to 159
CC1(C)Sc2oc(S(N)(=O)=O)cc2C1=O | 167 to 169
COc1ccc2c(c1)OC(CNCCCOc1ccc3c(=O)ccoc3c1)CO2 (centres undefined) | 155 to 157
CC(C)(C)OC(=O)COC[C@@H]1C[C@@H](SC(c2ccccc2)(c2ccccc2)c2ccccc2)CN1S(C)(=O)=O | 98
Cc1nc(C(F)(F)F)ccc1C(=O)C1=C(S(=O)(=O)c2ccccc2)CCCC1=O | 165 to 167
NCCOc1cc(F)cc2c1OCCC2 | 68 to 70
Cc1ccc(C2COc3c(C)c(C)c(NCc4ccccc4)c(C)c32)nc1 (centres undefined) | 104 to 105
CCOC(=O)c1ncn2c1[C@@H]1CCN1C(=O)c1sccc1-2 | 188 to 191

Structure (SMILES) | melting point [°C]
COc1c(C)cc(NC(=O)C(C)(C)C)cc1C | 126 to 128
CCOC(=O)c1cnc2c(NC(=O)c3c(Cl)cccc3Cl)cccc2c1CSc1ncc[nH]1 | 120 to 123
CS(=O)(=O)CC(=O)c1[nH]c2cc(Br)c(Cl)cc2c1-c1ccccc1 | 224 to 225
CN(C)c1ccc2c(c1)Sc1cc(OC(=O)c3ccccc3)ccc1N2C(=O)c1ccccc1 | 194 to 200
COC(=O)CCC(C)C1CCC2C3CC=C4C(C)(C)C(O)CCC4(C)C3CCC12C (centres undefined) | 136 to 138
CN(C)CCC1(CO)c2ccccc2N(C)c2cc(Cl)ccc21 (centres undefined) | 120
O=C(Nc1nn[nH]n1)c1cnc(N2CCOCC2)nc1OC1CCCCCC1 | 287
CCCCCCCCCCCC=C1NN=CN1N | 40 to 43
CC(CCCCCOCCc1ccccc1)NCC(O)c1ccc(O)c2[nH]c(=O)ccc12 (centres undefined) | 134 to 138
O=[N+]([O-])c1ccc(C=Cc2ccc(Cl)c(Cl)c2)cc1O | 105 to 106
CC(C)(CO)Nc1nc(-c2cccc(Br)c2)cs1 | 116 to 120
O=C(O)CN1CCCC(n2nc(-c3c(-c4ccccc4)nn4ccccc34)ccc2=O)C1=O (centres undefined) | 145 to 150
O=C(CCN1CCC(C(O)(c2ccc(F)cc2)c2ccc(F)cc2)CC1)N(c1ccccc1)c1ccccc1 | 160 to 162
COc1ccc(C(=O)c2ccc(OCc3nc(-c4ccccc4)oc3C)cc2)c(OCCC(=O)O)c1 | 142 to 143
Cc1ccc(-c2nc(C#N)cc3c4cccc5c4n(c23)CCC5)cc1 | 217 to 218
Cc1oc(-c2ccccc2)nc1COc1ccc(OCc2oc(-c3ccccc3)nc2CO)cc1 | 143 to 144
CC(=O)NC[C@H]1CN(c2cc(F)c(N3CCC(Cc4noc(C)n4)CC3)c(F)c2)C(=O)O1 | 134 to 136
NC(=S)Nc1nncs1 | 253
Cc1nc(NC2CCCC2O)c2ncn(C3OC(CO)C(O)C3O)c2n1 (centres undefined) | 188 to 192
Clc1nc(Cl)c2sc(Cl)nc2n1 | 121 to 122
CC1=NC(C)(C)SC1=NOC(=O)N(C)C | 92 to 95
COc1cc(CC(=O)NCCOc2ccc(C(=O)O)cc2[N+](=O)[O-])ccc1NC(=O)Nc1ccccc1C | 112 to 115
COC(=O)c1ccccc1NC(=S)NN(C)C | 149 to 152
CCC(C)c1ccc(NC(=O)c2sccc2S(=O)(=O)Nc2onc(C)c2Br)cc1 (centres undefined) | 205 to 208
